# Paper PMC7226613, “Antikinetoplastid Activity of Indolocarbazoles from Streptomyces sanyensis” (Biomolecules, 2020)
# Where two headings read alike, the source gives them in different places.
# Experiments:
# [1] = system: epimastigote of T. cruzi (Y strain); test: Trypanocidal capacity assay, epimastigotes (AlamarBlue); settings: 72 h; for IC50: Trypanosoma cruzi, read-out: T. cruzi IC50; for T. cruzi IC50: epimastigotes, mean ± SD
# Procedure: Epimastigotes were cultured in Liver Infusion Tryptose (LIT) medium supplemented with 10% FBS at 26 °C and were grown to the log phase for use in further experiments.
# The assay was carried out in vitro against epimastigote stage of T. cruzi. […] Benznidazole (Sigma-Aldrich, Madrid, Spain) was used as a reference drug.
# (§3) All experiments were performed three times, in duplicates for each concentration tested, and the mean values were also calculated. A Tukey test was used for analysis of the data.
# [2] = Cytotoxicity assay (AlamarBlue); settings: mouse
# Procedure: (§4) After 24 h, cell viability was determined using AlamarBlue® method [24]. Miltefosine (Cayman Chemicals, Vitro SA, Madrid, Spain) and benznidazole (Sigma-Aldrich, Madrid, Spain) were used as reference drugs.
# as §3
# [3] = system: macrophage J774A.1 cell line; test: Cytotoxicity assay (AlamarBlue); settings: 24 h, AlamarBlue, mean ± SD
# Procedure: as §4, §3
# T. cruzi = test: Plasma membrane permeability (SYTOX Green); format: cell-based, Trypanosoma cruzi; settings: IC90, 24 h
# Procedure: (§1) The SYTOX® Green assay was performed to detect the membrane permeability alterations in parasites. […] SYTOX® Green was added at a final concentration of 1 μM (Molecular Probes).
# L. amazonensis = test: Plasma membrane permeability (SYTOX Green); format: cell-based, Leishmania amazonensis; settings: IC90, 24 h
# Procedure: as §1
# [4] = system: promastigotes of L. donovani; test: Microscopic morphology of treated promastigotes; format: cell-based, Leishmania donovani; settings: 10 µM; flagellar pocket increased, invagination of plasma membrane
# [5] = system: L. donovani promastigotes; test: Mitochondrial membrane potential (JC-1); format: cell-based, Leishmania donovani; settings: IC90, 24 h
# Procedure: (§2) The decrease in the mitochondrial membrane potential was detected using a JC-1 Mitochondrial Membrane, Potential Assay Kit, Cayman Chemical. […] The pellet was resuspended in JC-1 buffer. After that, 100 µL of each treated culture was added to a black 96-well plate (PerkinElmer) and 10 µL of JC-1 was added, and the plate was incubated for half an hour at 26 °C. Green and red fluorescence intensity was measured using an Enspire microplate reader (PerkinElmer, Massachusetts, USA) for 30 min. In addition, the depolarization of the mitochondrial membrane potential was confirmed by microscopic observation using EVOS FL Cell Imaging System AMF4300, Life Technologies, USA.
# L. donovani = test: Plasma membrane permeability (SYTOX Green); format: cell-based, Leishmania donovani; settings: IC90, 24 h
# Procedure: as §1
# [6] = system: promastigotes of L. donovani (MHOM/IN/90/GE1F8R); test: Leishmanicidal capacity assay, promastigotes (AlamarBlue); format: cell-based, Leishmania donovani; settings: 72 h, mean ± SD; for IC50: Leishmania donovani
# [7] = system: L. amazonensis promastigotes; test: Mitochondrial membrane potential (JC-1); format: cell-based, Leishmania amazonensis; settings: IC90 (8.36 µM), 24 h
# Procedure: as §2
# [8] = system: promastigotes of L. amazonensis (MHOM/BR/77/LTB0016); test: Leishmanicidal capacity assay, promastigotes (AlamarBlue); format: cell-based, Leishmania amazonensis; settings: for IC50 / L. amazonensis IC50: promastigotes, 72 h, mean ± SD
# T. cruzi epimastigotes = test: Mitochondrial membrane potential (JC-1); format: cell-based, Trypanosoma cruzi; settings: IC90, 24 h
# Procedure: as §2
# [9] = system: L. amazonensis amastigotes; test: Anti-amastigote activity, intra-macrophage stage in J774A.1; settings: for Selectivity Index (CC50/IC50): CC50 J774A.1 / IC50 L. amazonensis amastigotes; for IC50: Leishmania amazonensis, J774.A1, read-out: L. Amazonensis Amastigotes IC50
# Procedure: The anti-amastigote activity was measured according to Jain et al. [26]. […] After one hour of incubation, 100 µL of stationary phase promastigotes of 7-day-old culture was added in a 10:1 ratio (2 × 10^6/mL) and the plates were re-incubated at 37 °C for 24 h to achieve a maximum infection. […] Separately, and in a 96-deep well plate, a serial dilution of the selected compounds was made with the same medium and then 50 μL of each dilution was added to each well. The plates were incubated at 37 °C, 5% CO2 for 24 h. After this incubation, we removed the medium from each well and 30 μL of Schneider medium containing 0.05% SDS was added to each well. The plate was shacked for 30 s and 170 μL of Schneider medium were added to each well. AlamarBlue® at 10% was added into each well and incubated at 26 °C for 72 h. […] Miltefosine (Cayman Chemicals, Vitro SA, Madrid, Spain) was used as reference drug.
# as §3
# protein kinase C (PKC) = settings: cited from earlier work
# protein kinase A (PKA) = settings: cited from earlier work
# phosphorylase kinase = settings: cited from earlier work
# [10] = system: macrophage J774A.1 cell line
# Procedure: as §4, §3
# in vitro = settings: mouse
# Procedure: as §4, §3
structure (smiles),measurement,setting,value
O=C(Cn1ccnc1[N+](=O)[O-])NCc1ccccc1 [Benznidazole],IC50,[1],6.94 ± 1.94 µM
same,CC50 at 24 h,[2]; J774A.1 macrophage cell line,400 ± 4 µM
"CN[C@@H]1C[C@H]2O[C@@](C)([C@@H]1OC)n1c3ccccc3c3c4c(c5c6ccccc6n2c5c31)C(=O)NC4 [Compound 1, staurosporine]",IC50,[1],3.63 ± 0.77 µM
same,CC50,[3]; read-out: Macrophage J774A.1 CC50,8.74 ± 0.72 µM
"CN[C@@H]1C[C@H]2O[C@@](C)([C@@H]1OC)n1c3ccccc3c3c4c(c5c6ccccc6n2c5c31)C(=O)NC4=O [Compound 2, 7-oxostaurosporine]",cytoplasmic membrane permeability,T. cruzi,remarkable membrane alteration
same,cytoplasmic membrane permeability,L. amazonensis,does not seem to be permeable
same,morphological changes of parasites,[4],morphological changes
same,effect on mitochondrial membrane potential (ΔΨm),[5],did not observe any change
same,cytoplasmic membrane permeability,L. donovani,remarkable membrane alteration
same,IC50,[6],0.56 ± 0.06 µM
same,IC50,[1],1.58 ± 0.52 µM
same,effect on mitochondrial membrane potential (ΔΨm),[7],intense effect
same,IC50,[8]; Leishmania amazonensis,3.58 ± 1.1 µM
same,IC90,"[8]; Leishmania amazonensis, read-out: IC90 concentration, L. amazonensis promastigotes",8.36 µM
same,effect on mitochondrial membrane potential (ΔΨm),T. cruzi epimastigotes,did not observe any change
same,CC50 at 24 h,[2],5.2 ± 1.75 µM
same,Selectivity Index (CC50/IC50),[9],52
same,IC50,[9],0.1 µM
"CO[C@@H]1C(=O)C[C@H]2O[C@]1(C)n1c3ccccc3c3c4c(c5c6ccccc6n2c5c31)C(=O)NC4 [Compound 3, 4′-demethylamino-4′-oxostaurosporine]",IC50,[6],> 40 µM
same,IC50,[1],17.1 ± 1.64 µM
same,IC50,[8]; Leishmania amazonensis,17.1 ± 4.78 µM
same,Macrophage J774A.1 CC50,[3],low toxicity
same,CC50 at 24 h,[2]; J774A.1 macrophage cell line,> 40 µM
same,IC50,[9],2.03 ± 0.27 µM
"COC1=C(C)O[C@@H]2C[C@@]1(OC)n1c3ccccc3c3c4c(c5c6ccccc6n2c5c31)C(=O)NC4 [Compound 4, streptocarbazole B]",IC50,[6],> 40 µM
same,IC50,[1],12.5 ± 2.06 µM
same,IC50,[8]; Leishmania amazonensis,10.4 ± 0.21 µM
same,Macrophage J774A.1 CC50,[3],low toxicity
same,CC50 at 24 h,[2]; J774A.1 macrophage cell line,> 40 µM
same,IC50,[9],2.47 ± 0.09 µM
"CO[C@H]1[C@H](O)[C@@H](O)[C@H](n2c3c(Cl)cccc3c3c4c(c5c6cccc(Cl)c6[nH]c5c32)C(=O)NC4=O)O[C@@H]1CO [Compound 5, rebeccamycin]",L. donovani IC50,[6],completely inactive
same,IC50,[6],> 40 µM
same,inhibitory effect on PKC,protein kinase C (PKC),no inhibitory effect
same,IC50,[1],> 40 µM
same,T. cruzi IC50,[1],completely inactive
same,IC50,[8]; Leishmania amazonensis,> 40 µM
same,L. amazonensis IC50,[8],completely inactive
same,CC50 at 24 h,[2]; J774A.1 macrophage cell line,1.42 ± 0.19 µM
"COC(=O)[C@@]1(O)C[C@H]2O[C@]1(C)n1c3ccccc3c3c4c(c5c6ccccc6n2c5c31)C(=O)NC4 [Compound 6, K252a]",IC50,[6],8.09 ± 1.12 µM
same,IC50,[1],4 ± 0.24 µM
same,IC50,protein kinase A (PKA),0.14 µM
same,IC50,[8]; Leishmania amazonensis,5.9 ± 0.96 µM
same,CC50 at 24 h,[2],1.07 ± 0.21 µM
same,IC50,phosphorylase kinase,0.0017 µM
"C[C@]12O[C@H](C[C@]1(O)C(=O)O)n1c3ccccc3c3c4c(c5c6ccccc6n2c5c31)CNC4=O [Compound 7, K252b]",Macrophage J774A.1 CC50,[10],low toxicity
same,IC50,[6],4.45 ± 0.71 µM
same,IC50,[1],7.41 ± 0.93 µM
same,IC50,[8]; Leishmania amazonensis,20.6 ± 4.5 µM
same,CC50 at 24 h,in vitro,> 40 µM
"O=C1NCc2c1c1c3ccccc3[nH]c1c1[nH]c3ccccc3c21 [Compound 8, K252c]",L. donovani IC50,[6],completely inactive
same,IC50,[6],> 40 µM
same,IC50,[1],> 40 µM
same,T. cruzi IC50,[1],completely inactive
same,IC50,[8]; Leishmania amazonensis,> 40 µM
same,L. amazonensis IC50,[8],completely inactive
same,Macrophage J774A.1 CC50,[3],low toxicity
same,CC50 at 24 h,[2]; J774A.1 macrophage cell line,35.4 ± 2.47 µM
"O=C1NC(=O)c2c1c1c3ccccc3[nH]c1c1[nH]c3ccccc3c21 [Compound 9, arcyriaflavin A]",Macrophage J774A.1 CC50,[10],low toxicity
same,L. donovani IC50,[6],completely inactive
same,IC50,[6],> 40 µM
same,IC50,[1],> 40 µM
same,T. cruzi IC50,[1],completely inactive
same,IC50,[8]; Leishmania amazonensis,> 40 µM
same,L. amazonensis IC50,[8],completely inactive
same,CC50 at 24 h,in vitro,> 40 µM
CCCCCCCCCCCCCCCCOP(=O)([O-])OCC[N+](C)(C)C [Miltefosine],IC50,[6],3.32 ± 0.27 µM
same,CC50 at 24 h,[2]; J774A.1 macrophage cell line,72.2 ± 3.06 µM
same,Selectivity Index (CC50/IC50),[9],23
